Laboratory results: PubChem BioAssay (NCI)
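Exposure lasted 48 hours, with cells grown in 96-well plates and compounds tested at five concentrations. GI50: concentration for 50% inhibition of growth. TGI denotes the concentration required for complete inhibition of growth.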

Legend:
Test in all cases: NCI-60 cell line screen, 48 h
786-0 renal = test system: 786-0 renal
A498 renal = test system: A498 renal
A549 NSCLC = test system: A549 NSCLC
ACHN renal = test system: ACHN renal
CAKI-1 renal = test system: CAKI-1 renal
CCRF-CEM leukemia = test system: CCRF-CEM leukemia
COLO 205 colon = test system: COLO 205 colon
DU-145 prostate = test system: DU-145 prostate
EKVX NSCLC = test system: EKVX NSCLC
HCC-2998 colon = test system: HCC-2998 colon
HCT-116 colon = test system: HCT-116 colon
HCT-15 colon = test system: HCT-15 colon
HL-60(TB) leukemia = test system: HL-60(TB) leukemia
HOP-62 NSCLC = test system: HOP-62 NSCLC
HOP-92 NSCLC = test system: HOP-92 NSCLC
HS 578T breast = test system: HS 578T breast
HT29 colon = test system: HT29 colon
IGROV1 ovarian = test system: IGROV1 ovarian
K-562 leukemia = test system: K-562 leukemia
KM12 colon = test system: KM12 colon
LOX IMVI melanoma = test system: LOX IMVI melanoma
MALME-3M melanoma = test system: MALME-3M melanoma
MCF7 breast = test system: MCF7 breast
MDA-MB-231 breast = test system: MDA-MB-231 breast
MDA-MB-435 = test system: MDA-MB-435
MOLT-4 leukemia = test system: MOLT-4 leukemia
NCI-H226 lung = test system: NCI-H226 lung
NCI-H23 lung = test system: NCI-H23 lung
NCI-H460 lung = test system: NCI-H460 lung
NCI-H522 lung = test system: NCI-H522 lung
NCI/ADR-RES ovarian = test system: NCI/ADR-RES ovarian
OVCAR-3 ovarian = test system: OVCAR-3 ovarian
OVCAR-4 ovarian = test system: OVCAR-4 ovarian
OVCAR-5 ovarian = test system: OVCAR-5 ovarian
OVCAR-8 ovarian = test system: OVCAR-8 ovarian
PC-3 prostate = test system: PC-3 prostate
RXF 393 renal = test system: RXF 393 renal
SF-268 CNS = test system: SF-268 CNS
SF-295 CNS = test system: SF-295 CNS
SF-539 CNS = test system: SF-539 CNS
SK-MEL-2 melanoma = test system: SK-MEL-2 melanoma
SK-MEL-28 melanoma = test system: SK-MEL-28 melanoma
SK-MEL-5 melanoma = test system: SK-MEL-5 melanoma
SK-OV-3 ovarian = test system: SK-OV-3 ovarian
SN12C renal = test system: SN12C renal
SNB-19 CNS = test system: SNB-19 CNS
SNB-75 CNS = test system: SNB-75 CNS
SR leukemia = test system: SR leukemia
SW-620 colon = test system: SW-620 colon
T-47D breast = test system: T-47D breast
TK-10 renal = test system: TK-10 renal
U251 CNS = test system: U251 CNS
UACC-257 melanoma = test system: UACC-257 melanoma
UACC-62 melanoma = test system: UACC-62 melanoma
UO-31 renal = test system: UO-31 renal
BT-549 breast = test system: BT-549 breast
M14 melanoma = test system: M14 melanoma
RPMI-8226 leukemia = test system: RPMI-8226 leukemia

NCCCOc1cc(Cl)ccc1NC(=O)c1cc2ccccc2cc1OCCCN
GI50 (786-0 renal): 1.62 µM | TGI (786-0 renal): 3.08 µM | GI50 (A498 renal): 1.58 µM | TGI (A498 renal): 3.08 µM | GI50 (A549 NSCLC): 1.54 µM | TGI (A549 NSCLC): 3.06 µM | GI50 (ACHN renal): 1.48 µM | TGI (ACHN renal): 2.88 µM | GI50 (CAKI-1 renal): 1.6 µM | TGI (CAKI-1 renal): 3.64 µM | GI50 (CCRF-CEM leukemia): 0.469 µM | TGI (CCRF-CEM leukemia): 2.54 µM | GI50 (COLO 205 colon): 1.31 µM | TGI (COLO 205 colon): 2.79 µM | GI50 (DU-145 prostate): 1.58 µM | TGI (DU-145 prostate): 2.95 µM | GI50 (EKVX NSCLC): 1.69 µM | TGI (EKVX NSCLC): 3.58 µM | GI50 (HCC-2998 colon): 1.39 µM | TGI (HCC-2998 colon): 2.82 µM | GI50 (HCT-116 colon): 1.37 µM | TGI (HCT-116 colon): 2.8 µM | GI50 (HCT-15 colon): 1.5 µM | TGI (HCT-15 colon): 3.2 µM | GI50 (HL-60(TB) leukemia): 0.665 µM | TGI (HL-60(TB) leukemia): 2.39 µM | GI50 (HOP-62 NSCLC): 1.26 µM | TGI (HOP-62 NSCLC): 2.59 µM | GI50 (HOP-92 NSCLC): 1.32 µM | TGI (HOP-92 NSCLC): 2.85 µM | GI50 (HS 578T breast): 1.59 µM | TGI (HS 578T breast): 3.57 µM | GI50 (HT29 colon): 1.62 µM | TGI (HT29 colon): 4.16 µM | GI50 (IGROV1 ovarian): 0.678 µM | TGI (IGROV1 ovarian): 2.28 µM | GI50 (K-562 leukemia): 1.72 µM | TGI (K-562 leukemia): 4.12 µM | GI50 (KM12 colon): 1.48 µM | TGI (KM12 colon): 2.91 µM | GI50 (LOX IMVI melanoma): 1.2 µM | TGI (LOX IMVI melanoma): 2.59 µM | GI50 (MALME-3M melanoma): 1.65 µM | TGI (MALME-3M melanoma): 3.59 µM | GI50 (MCF7 breast): 1.62 µM | TGI (MCF7 breast): 3.07 µM | GI50 (MDA-MB-231 breast): 1.19 µM | TGI (MDA-MB-231 breast): 2.69 µM | GI50 (MDA-MB-435): 1.8 µM | TGI (MDA-MB-435): 3.59 µM | GI50 (MOLT-4 leukemia): 1.51 µM | TGI (MOLT-4 leukemia): 3.25 µM | GI50 (NCI-H226 lung): 1.22 µM | TGI (NCI-H226 lung): 2.62 µM | GI50 (NCI-H23 lung): 1.51 µM | TGI (NCI-H23 lung): 3.03 µM | GI50 (NCI-H460 lung): 1.68 µM | TGI (NCI-H460 lung): 3.21 µM | GI50 (NCI-H522 lung): 0.575 µM | TGI (NCI-H522 lung): 2.34 µM | GI50 (NCI/ADR-RES ovarian): 1.97 µM | TGI (NCI/ADR-RES ovarian): 4.25 µM | GI50 (OVCAR-3 ovarian): 1.32 µM | TGI (OVCAR-3 ovarian): 2.65 µM | GI50 (OVCAR-4 ovarian): 1.51 µM | TGI (OVCAR-4 ovarian): 2.91 µM | GI50 (OVCAR-5 ovarian): 1.42 µM | TGI (OVCAR-5 ovarian): 3.01 µM | GI50 (OVCAR-8 ovarian): 1.84 µM | TGI (OVCAR-8 ovarian): 3.59 µM | GI50 (PC-3 prostate): 1.41 µM | TGI (PC-3 prostate): 2.83 µM | GI50 (RXF 393 renal): 1.24 µM | TGI (RXF 393 renal): 2.54 µM | GI50 (SF-268 CNS): 1.29 µM | TGI (SF-268 CNS): 2.63 µM | GI50 (SF-295 CNS): 1.66 µM | TGI (SF-295 CNS): 3.42 µM | GI50 (SF-539 CNS): 1.5 µM | TGI (SF-539 CNS): 2.95 µM | GI50 (SK-MEL-2 melanoma): 1.58 µM | TGI (SK-MEL-2 melanoma): 3.19 µM | GI50 (SK-MEL-28 melanoma): 1.81 µM | TGI (SK-MEL-28 melanoma): 3.23 µM | GI50 (SK-MEL-5 melanoma): 1.47 µM | TGI (SK-MEL-5 melanoma): 2.81 µM | GI50 (SK-OV-3 ovarian): 1.4 µM | TGI (SK-OV-3 ovarian): 2.72 µM | GI50 (SN12C renal): 1.58 µM | TGI (SN12C renal): 3.23 µM | GI50 (SNB-19 CNS): 1.62 µM | TGI (SNB-19 CNS): 3.21 µM | GI50 (SNB-75 CNS): 1.23 µM | TGI (SNB-75 CNS): 2.5 µM | GI50 (SR leukemia): 1.72 µM | TGI (SR leukemia): 4.71 µM | GI50 (SW-620 colon): 1.58 µM | TGI (SW-620 colon): 3.06 µM | GI50 (T-47D breast): 1.51 µM | TGI (T-47D breast): 3.2 µM | GI50 (TK-10 renal): 1.73 µM | TGI (TK-10 renal): 3.38 µM | GI50 (U251 CNS): 1.71 µM | TGI (U251 CNS): 3.24 µM | GI50 (UACC-257 melanoma): 2.02 µM | TGI (UACC-257 melanoma): 3.69 µM | GI50 (UACC-62 melanoma): 1.78 µM | TGI (UACC-62 melanoma): 3.3 µM | GI50 (UO-31 renal): 1.2 µM | TGI (UO-31 renal): 2.65 µM

CNC(C)C(O)c1ccc2oc3cc(=O)c4ccccc4c-3nc2c1 (centres undefined)
TGI (A498 renal): 50.6 µM | TGI (A549 NSCLC): > 100 µM | TGI (ACHN renal): 57.9 µM | TGI (BT-549 breast): > 100 µM | TGI (CAKI-1 renal): 29.6 µM | TGI (CCRF-CEM leukemia): 47 µM | TGI (COLO 205 colon): > 100 µM | TGI (DU-145 prostate): 18 µM | TGI (EKVX NSCLC): > 100 µM | TGI (HCC-2998 colon): > 100 µM | TGI (HCT-116 colon): 21.8 µM | TGI (HCT-15 colon): > 100 µM | TGI (HL-60(TB) leukemia): > 100 µM | TGI (HOP-62 NSCLC): 18.1 µM | TGI (HOP-92 NSCLC): > 100 µM | TGI (HS 578T breast): 8.48 µM | TGI (HT29 colon): > 100 µM | TGI (IGROV1 ovarian): > 100 µM | TGI (K-562 leukemia): > 100 µM | TGI (KM12 colon): 49.8 µM | TGI (LOX IMVI melanoma): 26.7 µM | TGI (M14 melanoma): 16.1 µM | TGI (MALME-3M melanoma): 19.9 µM | TGI (MCF7 breast): 41.7 µM | TGI (MDA-MB-231 breast): > 100 µM | TGI (MDA-MB-435): 3.54 µM | TGI (MOLT-4 leukemia): 54.8 µM | TGI (NCI-H23 lung): > 100 µM | TGI (NCI-H460 lung): 61.4 µM | TGI (NCI-H522 lung): 33.7 µM | TGI (NCI/ADR-RES ovarian): > 100 µM | TGI (OVCAR-3 ovarian): 28.7 µM | TGI (OVCAR-4 ovarian): 36.6 µM | TGI (OVCAR-5 ovarian): > 100 µM | TGI (OVCAR-8 ovarian): > 100 µM | TGI (PC-3 prostate): > 100 µM | TGI (RPMI-8226 leukemia): > 100 µM | TGI (RXF 393 renal): 84.8 µM | TGI (SF-268 CNS): > 100 µM | TGI (SF-295 CNS): 15.6 µM | TGI (SF-539 CNS): 5.99 µM | TGI (SK-MEL-2 melanoma): 64.2 µM | TGI (SK-MEL-28 melanoma): 27.6 µM | TGI (SK-MEL-5 melanoma): 6.68 µM | TGI (SK-OV-3 ovarian): > 100 µM | TGI (SN12C renal): 25.1 µM | TGI (SNB-19 CNS): > 100 µM | TGI (SW-620 colon): > 100 µM | TGI (T-47D breast): 98.4 µM | TGI (TK-10 renal): > 100 µM | TGI (U251 CNS): 22.4 µM | TGI (UACC-257 melanoma): 33.4 µM | TGI (UACC-62 melanoma): 14.3 µM | TGI (UO-31 renal): 67 µM
